Laboratory results: patent US10780094B2, “Use of carbonic anhydrase inhibitors for treatment of neurological and psychiatric disorders” (New York University, priority 2016, dated 2020)

Legend:
Type in all cases: cell-based, human
[1] = tested on: mitochondria isolated from ECs (D3 cells); assay: Mitochondrial H2O2 production (Amplex Red) after Aβ challenge; conditions: ATZ at lower concentrations than MTZ
Protocol: Cells were plated on 6-wells plates and treated with the peptides and/or drugs for the experimental times. Plates were centrifuged for 10 min at 1.000 RPM and washed twice with PBS 1×. After that, 500 μL of homogenization buffer (75 mM sucrose, 225 mM mannitol, 5 mM Tris-HCl pH=7.4, 1 mM PMSF and protease inhibitor cocktail) was added. Cells were scraped in this buffer, collected in glass tubes and grinded exactly 80 times with a pellet pestle, keeping everything always on ice. Cells were then centrifuged at 2.800 RPM for 5 min at 4° C. The supernatant was collected and centrifuged again at 2.800 RPM for 5 min at 4° C. The supernatant was again collected and centrifuged at 10.500 RPM for another 5 min at 4° C. After this, the supernatant was discarded and the pellet was re-suspended in 100 μL of homogenization buffer. The samples were centrifuged again at 10.500 RPM for 10 min at 4° C., the supernatant was discarded and the pellets (mitochondrial fractions) were re-suspended on 50 μL of homogenization buffer. […] After that, mitochondrial fractions containing equal amounts of mitochondrial proteins were placed on 96-wells microplate absorbance microtiter (ThermoFisher, Waltham, Mass., US) and the AmplexRed assay was ran, following the instructions provided by the manufacturer. Absorbance was measured by using a FlexStation (Molecular Devices, Sunnyvalem Calif., US).

[2] = tested on: SH-SY5Y cells; assay: Aβ-induced mitochondrial Cytochrome C release
Protocol: (§1) Both SH-SY5Y cells and Glioma cells were plated on glass chamber slides (Thermo Fisher Scientific, Rochester, N.Y.). Slides were pre-coated with poly-D-lysine for SH-SY5Y cells. After seeding, cells were allowed to attach for 1 day prior to treatment with Aβ in the presence or absence of MTZ for 24 hours. Cells were then washed with PBS, fixed with 4% paraformaldehyde (10 min, RT) and blocked for 1 hour with 20 mg/ml BSA in PBS containing 0.3% Triton X-100 (PBST). Slides were further incubated with mouse monoclonal anti-CytC antibody (BD Biosciences; 1:200 in PBST containing 5 mg/ml BSA; 2 h, RT) followed by Alexa Fluor 488-conjugated anti-mouse IgG (Life Technologies, Grand Island, N.Y.) 1:200 in PBST with 5 mg/ml BSA for 1 h at RT, as previously described (Fossati et al., 2013). Fluorescence signals were visualized in a Zeiss LSM 510 laser scanning confocal/Confocor2 microscope using a 40×DIC oil immersion objective and LSM 510 software; acquired images were imported into ImageJ (National Institute of Health; http://rsbweb.nih.gov/ij/).
(§2) Subcellular distribution of CytC in amyloid-challenged SH-SY5Y and glioma cells was determined in mitochondrial and cytoplasmic protein extracts prepared using Mitochondria Isolation Kit (MITOISO2, Sigma) following the manufacturer's specifications. Briefly, after amyloid challenge in the presence and absence of Methazolamide, as above, cells were collected by trypsinization, resuspended in 10 mM HEPES, pH 7.5, containing 200 mM mannitol, 70 mM sucrose, 1 mM EGTA added of Protease Inhibitor Cocktail, and homogenized with the aid of a Dounce glass homogenizer. Cell homogenates were centrifuged to remove unbroken cells and nuclei (600×g, 5 min, 4° C.) and supernatants further centrifuged at 11,000×g (5 min, 4° C.) to subfractionate mitochondria. Supernatants, representing the cytosolic fractions as well as mitochondrial fractions were analyzed by CytC ELISA and WB.
(§3) The concentration of CytC in cytosolic and mitochondrial fractions was quantitated by solid phase sandwich ELISA (Quantikine ELISA, human Cytochrome C Immunoassay, R&D Systems) as described by the manufacturer. Prior to the assay, fractions containing cytoplasmic proteins were concentrated on Vivaspin 500 centrifugal concentrators (GE HealthCare, molecular weight cut off 5000), mitochondrial pellets were resuspended in Cell Lysis Buffer provided with the kit, and total protein of the respective fractions was evaluated by BCA protein assay (Thermo Fisher Scientific/Pierce). […] After washing away unbound proteins, wells were further incubated with an HRP-linked monoclonal antibody anti-human CytC, color developed with tetramethylbenzinine peroxidase substrate, and evaluated through quantitation of the Absorbance at 450 nm. […]

[3] = tested on: Glioma cells; assay: Aβ-induced mitochondrial Cytochrome C release
Protocol: as §1, §2, §3

[4] = tested on: mitochondria isolated from glial cells; assay: Mitochondrial H2O2 production (Amplex Red) after Aβ challenge
Protocol: Production of H2O2 from isolated mitochondria was measured using Amplex Red Hydrogen Peroxide/Peroxidase Assay (Life Technologies). Cells were treated with Aβ peptides, in the presence or absence of MTZ. After 16 hours of treatment, the mitochondrial fraction was separated from nuclear and cytoplasmic fractions as previously described (Fossati et al., 2013). Protein concentration in the mitochondrial fraction was measured by BCA assay (Thermo Scientific, Rockford, Ill.), in order to include the same amount of mitochondria in each sample. Functional mitochondrial fractions were distributed in a 96 well plate with Reaction Buffer and Amplex Red solution following the manufacturer's specifications. The plate was incubated in the dark at room temperature for 30 minutes before colorimetric evaluation of the Amplex Red reaction at 560 nm.

[5] = 100 μM MTZ together with Aβ42 10 μM, 24 hours
[6] = MTZ 100 and 300 μM, Aβ42 10 μM, 24 h

## CC(=O)Nc1nnc(S(N)(=O)=O)s1 [ATZ, acetazolamide]
[1]
  inhibition of H2O2 production, compared with MTZ: more dramatic effect on the inhibition of H2O2 production

## CC(=O)/N=c1/sc(S(N)(=O)=O)nn1C [MTZ, methazolamide]
[2]; [5]
  release of CytC (immunocytochemistry): prevented
[2]; [6]
  release of CytC by ELISA and Western blot in mitochondrial and cytosolic fractions: inhibition
[3]; [5]
  release of CytC (immunocytochemistry): prevented
[3]; [6]
  release of CytC by ELISA and Western blot in mitochondrial and cytosolic fractions: inhibition
[4]; Example 1, Aβ with MTZ
  Aβ-induced increase in H2O2 production by isolated mitochondria: completely reverted
[4]; MTZ alone, untreated cells
  H2O2 production, drug alone: did not have any effect
